From patent publication US6727272B1, “Leflunomide analogs for treating rheumatoid arthritis” (Unitech Pharmaceuticals, Inc., priority 2002, dated 2004) come the findings set out here.

For the assay, the system named is Carrageenan-stimulated inflammation on the rear left footpad of the rat. As to the kind of experiment: Carrageenan-induced footpad edema in rats (Edema Rate E% and Inhibition Rate I%). The assay is classed as in vivo, Wistar Albino Rats. The note with it: sc, vs control group edema rate, read-out: percentage inhibition rate (I %). How it is done: Wistar Albino Rats of 4 to 6 weeks old with weights of 100-150 g were used for the studies.
Weigh 30 mg of λ-carrageenan (Sigma Chemical) powder; add 3 mL of saline to make the 1% carrageenan solution.
Individually weigh 10 mg of each testing compound; add 10 mL of 1% CMC and shake to make the suspension.
In the present invention, Carrageenan was used to stimulate the inflammation on the rear left footpad of the rat. The inflammation on the left footpad of each rat was measured for rats with and without treatment. Treatment includes leflunomide analogs, dexamethasone, ibuprofen, and Malononitrilamide (MNA). Measurements of the inflamation at pre-determined time points were made.
The rats were weighed and divided into three groups: (1) Control Group, (2) Test Group, and (3) Comparison Group. For each compound, 5 rats were used and marked on the tails. Before injecting carrageenan, the volume of each left footpad was measured (V0). Each rat was injected in the back as follows:
(1) Control Group: 1% CMC for Control Group,
(2) Testing Group: testing compound (10 mg/kg each) in 1% CMC, and
(3) Comparison Group: dexamethasone (1.5 mg/kg in 1% CMC), ibuprofen 10 mg/kg in 1% CMC, MNA in 1% CMC.
One hour later, 0.05 mL of 1% carrageenan was injected onto the rear footpad of each rat to initiate the inflammation. Measure the volume of the rear left footpad (Vt) at 0.5, 1, 2, 3, 4, and 5 hours.
The Edema Rate (E%) and the Inhibition Rate (I%) are calculated as follows and the results of the in-vivo studies are summarized in Table 1 and Table 2. [formula]
V0=Volume (mL) of the rear left footpad before the injection of Carrageenan.
Vt=Volume (mL) of the rear left footpad at “t” time after the injection of Carrageenan
Ec=Edema Rate of the, Control Group
Et=Edema Rate of the Testing Group and Comparison Group

Like-named read-outs stand apart in the source and are kept apart here.

As for `COc1ccc(NC(=O)c2cc(C)on2)cc1` [Compound 5h, N-(4-Methoxyphenyl)-3carboxamidyl-5-methylisoxazole], the inhibition in vivo at 10 mg/kg was determined as 24% (1 h, 1 hr); 18.9% (2 h, 2 hr); 41.6% (3 h, 3 hr); 44.3% (4 h, 4 hr); 43.1% (5 h, 5 hr).
With `Cc1cc(C(=O)Nc2ccc(C(=O)O)cc2)no1` [Compound 5j, 4-[(5-Methylisoxazole-3-carbonyl)-amino]-benzoic acid], the inhibition in vivo at 10 mg/kg (1 h, 1 hr) worked out at 50.5%; the inhibition in vivo at 10 mg/kg (2 h, 2 hr) was found to be 46.7%; the inhibition in vivo at 10 mg/kg (3 h, 3 hr) was 56.2%; the inhibition in vivo at 10 mg/kg (4 h, 4 hr) came out at 58.3%; the inhibition in vivo at 10 mg/kg (5 h, 5 hr) was found to be 57.4%.
For `Cc1cc(C(=O)Nc2ccccc2)no1` [Compound 5a, N-(Phenyl)-3-carboxamidyl-5-methylisoxazole], the inhibition in vivo at 10 mg/kg by setting is: (1 h, 1 hr) 62.5%; (2 h, 2 hr) 74.9%; (3 h, 3 hr) 78.8%; (4 h, 4 hr) 78.4%; (5 h, 5 hr) 44.5%.
For the compound `CC(C)Cc1ccc(C(C)C(=O)O)cc1` (stereo not drawn) [Ibuprofen, reference compound], the inhibition in vivo at 10 mg/kg runs as follows: (1 h, 1 hr) 9.1%; (2 h, 2 hr) 21.6%; (3 h, 3 hr) 45.9%; (4 h, 4 hr) 44.4%; (5 h, 5 hr) 38%. Further, the inhibition in vivo at 20 mg/kg reads like this: (1 h, 1 hr) 20.8%; (2 h, 2 hr) 43.2%; (3 h, 3 hr) 55.7%; (4 h, 4 hr) 55.1%; (5 h, 5 hr) 51.6%. The inhibition in vivo at 30 mg/kg (1 h, 1 hr) was determined as 65.4%; the inhibition in vivo at 30 mg/kg (2 h, 2 hr) was 67.8%; the inhibition in vivo at 30 mg/kg (3 h, 3 hr) was 79.7%; the inhibition in vivo at 30 mg/kg (4 h, 4 hr) was 74.9%; the inhibition in vivo at 30 mg/kg (5 h, 5 hr) is 53%.
In the case of `Cc1cc(C(=O)Nc2ccc(Cl)cc2Cl)no1` [Compound 5g, N-(2,4-Dichlorophenyl)-3carboxamidyl-5-methylisoxazole], the inhibition in vivo at 10 mg/kg was 79.3% (1 h, 1 hr); 83.1% (2 h, 2 hr); 77.4% (3 h, 3 hr); 79% (4 h, 4 hr); 78% (5 h, 5 hr).
Take `Cc1cc(C(=O)Nc2ccc(F)cc2)no1` [Compound 5k, N-(4-Fluorophenyl)-3-carboxamidyl-5-methylisoxazole]: the inhibition in vivo at 10 mg/kg (1 h, 1 hr) came out at 46.2%; the inhibition in vivo at 10 mg/kg (2 h, 2 hr) was 17.5%; the inhibition in vivo at 10 mg/kg (3 h, 3 hr) amounted to 38.7%; the inhibition in vivo at 10 mg/kg (4 h, 4 hr) was found to be 43.5%; the inhibition in vivo at 10 mg/kg (5 h, 5 hr) came to 43.7%.
In the case of `C[C@@H]1C[C@H]2[C@@H]3CCC4=CC(=O)C=C[C@]4(C)[C@@]3(F)[C@@H](O)C[C@]2(C)[C@@]1(O)C(=O)CO` [Dexamethasone, reference compound], the inhibition in vivo at 1.5 mg/kg is 73.6% (1 h, 1 hr); 64.5% (2 h, 2 hr); 65.8% (3 h, 3 hr); 66.5% (4 h, 4 hr); 66.4% (5 h, 5 hr).
Regarding `Cc1cc(C(=O)Nc2ccccc2Cl)no1` [Compound 5b], the inhibition in vivo at 10 mg/kg is 80.1% (1 h, 1 hr); 82.5% (2 h, 2 hr); 79.4% (3 h, 3 hr); 79% (4 h, 4 hr); 77.7% (5 h, 5 hr).
`COc1cc(NC(=O)c2cc(C)on2)cc(OC)c1OC` [Compound 5i, N-(3,4,5-Trimethoxyphenyl)-3-carboxamidyl-5-methylisoxazole]: the inhibition in vivo at 10 mg/kg is, setting by setting: (1 h, 1 hr) 6.7%; (2 h, 2 hr) 34%; (3 h, 3 hr) 39.1%; (4 h, 4 hr) 42.7%; (5 h, 5 hr) 42.5%.
The like results for `Cc1cc(C(=O)Nc2ccc(Cl)cc2)no1` [Compound 5d, N-(4-Chlorophenyl)-3carboxamidyl-5-methyisoxazole] were, in that order, 70.2%, 72.8%, 77.6%, 77.8% and 76%.
With `Cc1oncc1C(=O)Nc1ccc(C(F)(F)F)cc1` [Leflunomide, N-(4-trifluoromethylphenyl)-4-carboxamidyl-5-methylisoxazole], the inhibition in vivo at 5 mg/kg amounted to 3.8% (1 h, 1 hr); 19.5% (2 h, 2 hr); 41% (3 h, 3 hr); 38.6% (4 h, 4 hr); 38.3% (5 h, 5 hr). Also, the inhibition in vivo at 10 mg/kg is, setting by setting: (1 h, 1 hr) 28.4%; (2 h, 2 hr) 34.3%; (3 h, 3 hr) 55%; (4 h, 4 hr) 47.8%; (5 h, 5 hr) 46%. Besides, the inhibition in vivo at 20 mg/kg runs as follows: (1 h, 1 hr) 45.7%; (2 h, 2 hr) 50%; (3 h, 3 hr) 60.4%; (4 h, 4 hr) 60.3%; (5 h, 5 hr) 57.4%.
Take `Cc1cc(C(=O)Nc2cccc(Cl)c2)no1` [Compound 5c, N-(3-Chlorophenyl)-3-carboxamidyl-5-methylisoxazole]: the inhibition in vivo at 10 mg/kg reads like this: (1 h, 1 hr) 64.4%; (2 h, 2 hr) 55.3%; (3 h, 3 hr) 60.6%; (4 h, 4 hr) 63.8%; (5 h, 5 hr) 61.1%.
With `Cc1cc(C(=O)Nc2ccc(C(F)(F)F)cc2)no1` [Compound 5f, N-(4-Trifluoromethylphenyl)3-carboxamidyl-5-methylisoxazole], the inhibition in vivo at 10 mg/kg reads like this: (1 h, 1 hr) 46.2%; (2 h, 2 hr) 53.8%; (3 h, 3 hr) 54.6%; (4 h, 4 hr) 58.4%; (5 h, 5 hr) 58.3%.
The like results for `Cc1cc(C(=O)Nc2cccc(C(F)(F)F)c2)no1` [Compound 5e, N-(3-Trifluoromethyl)-3-carboxamidyl-5-methylisoxazole] were, in that order, 26%, 41.7%, 40.7%, 44% and 46.8%.
